Source: the SangsterLogP compilation
One block for each molecule: values may come before it.

Tests used:
[1] = method code SF-HPLC, from DOI: 10.1002/jps.1029, PMID: 11357176

Compound: Cc1c(C)c2occc2c2oc(=O)ccc12
logP: 2.84

Compound: Cc1oc2cc3oc(=O)ccc3cc2c1C
logP: 2.93

Compound: O=c1ccc2cc3ccoc3cc2s1
logP: 2.61

Compound: Cc1cc2ccc(=O)oc2c2c(C)coc12
logP: 2.88

Compound: Cc1cc(=O)oc2c1ccc1occ(C)c12
logP: 2.81

Compound: Cc1c(C)c2cc3c(C)coc3nc2oc1=O
logP: 2.25

Compound: Cc1cc2cc3ccc(=O)oc3c(C)c2o1
logP: 2.93

Compound: Cc1oc2nc3oc(=O)c(C)c(C)c3cc2c1C
logP: 2.71

Compound: Cc1coc2cc3oc(=O)ccc3c(C)c12
logP: 2.79

Compound: Cc1cc2c(ccc3ccc(=O)oc32)o1
logP: 2.49

Compound: Cc1cc2ccc(=O)oc2c2ccoc12
logP: 2.43

Compound: Cc1c2oc(=O)ccc2c(C)c2c(C)coc12
logP: 3.35

Compound: O=c1ccc2cc3ccsc3cc2o1
logP: 2.27

Compound: Cc1oc2cc3oc(=O)ncc3cc2c1C
logP: 1.97

Compound: Cc1c(C)c2cc3ccoc3c(C)c2oc1=O
logP: 3.25

Compound: COc1c2occc2cc2ccc(=O)sc12
logP: 2.66

Compound: Cc1coc2c(C)c3oc(=O)ccc3cc12
logP: 2.81

Compound: Cc1coc2nc3oc(=O)ccc3c(C)c12
logP: 1.73

Compound: O=c1ccc2cc3ccoc3cc2o1
logP [1]: 2.08

Compound: Cc1cc2occc2c2oc(=O)ccc12
logP: 2.5

Compound: COc1c2occc2cc2ccc(=O)oc12
logP [1]: 2.07

Compound: Cc1c(C)c2ccc3occ(C)c3c2oc1=O
logP: 3.25

Compound: Cc1c(C)c2cc3ccoc3cc2oc1=O
logP: 2.77

Compound: Cc1coc2cc3oc(=O)ccc3cc12
logP: 2.47

Compound: Cc1oc2nc3oc(=O)ccc3c(C)c2c1C
logP: 2.19

Compound: Cc1coc2nc3oc(=O)cc(C)c3c(C)c12
logP: 2.25

Compound: Cc1cc2ccc3occ(C)c3c2oc1=O
logP: 2.97

Compound: Cc1oc2ccc3ccc(=O)oc3c2c1C
logP: 2.94

Compound: Cc1cc(=O)oc2c1ccc1occc12
logP: 2.34

Compound: Cc1c2occc2cc2ccc(=O)oc12
logP: 2.48

Compound: Cc1coc2ccc3ccc(=O)oc3c12
logP: 2.51

Compound: Cc1c2ccoc2cc2oc(=O)ccc12
logP: 2.33

Compound: Cc1cc2ccc3occc3c2oc1=O
logP: 2.49

Compound: O=c1ccc2ccc3occc3c2[nH]1
logP: 1.82

Compound: O=c1ccc2cc3ccsc3cc2s1
logP: 2.96

Compound: Cc1oc2cc3oc(=O)ccc3c(C)c2c1C
logP: 3.27

Compound: O=c1ccc2ccc3occc3c2s1
logP: 2.58

Other lines, results leading:

logP: 3.28
Compound: COc1c2oc(=O)c(C)cc2cc2c(C)c(C)oc12

logP: 4.09
Compound: Cc1sc2c(C)cc3c(C)cc(=O)oc3c2c1C

logP: 3.23
Compound: Cc1cc(=O)oc2c1cc(C)c1occ(C)c12

logP: 1.82
Compound: Cc1coc2nc3oc(=O)cc(C)c3cc12

logP: 3.25
Compound: Cc1cc2cc3c(C)cc(=O)oc3c(C)c2o1

logP: 3.22
Compound: Cc1oc2cc3oc(=O)cc(C)c3cc2c1C

logP: 2.82
Compound: Cc1cc(=O)oc2c(C)c3occc3cc12

logP: 3.13
Compound: Cc1cc(=O)[nH]c2c1cc(C)c1occ(C)c12

logP: 3.25
Compound: Cc1cc2c(C)cc3oc(=O)cc(C)c3c2o1

logP: 3.28
Compound: Cc1coc2c1c(C)cc1oc(=O)cc(C)c12

logP: 2.92
Compound: Cc1cc2c(cc(C)c3ccc(=O)oc32)o1

logP: 3.15
Compound: Cc1cc2c(o1)c(C)cc1c(C)cc(=O)oc12

logP: 3.08
Compound: Cc1cc2c(ccc3c(C)cc(=O)n(C)c32)o1

logP: 3.28
Compound: Cc1oc2ccc3c(C)cc(=O)oc3c2c1C

logP: 3.25
Compound: Cc1coc2c(C)c3oc(=O)cc(C)c3cc12

logP: 3.5
Compound: Cc1oc2c(C)cc3c(C)cc(O)nc3c2c1C

logP: 3.26
Compound: Cc1cc2c(o1)c(C)c(C)c1ccc(=O)oc12

logP: 3.43
Compound: Cc1cc2c(o1)c(C)cc1c(C)cc(=O)n(C)c12

logP: 2.76
Compound: Cc1coc2cc3oc(=O)cc(C)c3cc12

logP: 3.36
Compound: Cc1cc2c(cc(C)c3c(C)cc(=O)oc32)o1

logP: 3.65
Compound: Cc1sc2ccc3c(C)cc(=O)oc3c2c1C

logP: 3.34
Compound: Cc1oc2c(C)cc3ccc(=O)oc3c2c1C

logP: 2.82
Compound: Cc1cc2cc3c(C)cc(=O)oc3cc2o1

logP: 2.85
Compound: Cc1cc2c(o1)c(C)cc1ccc(=O)oc12

logP: 2.79
Compound: Cc1cc(=O)oc2c1cc(C)c1occc12

logP: 3.48
Compound: Cc1sc2cc3oc(=O)cc(C)c3cc2c1C

logP: 3.18
Compound: Cc1oc2ccc3c(C)cc(=O)[nH]c3c2c1C

logP: 3.3
Compound: Cc1cc(=O)n(C)c2c1cc(C)c1occ(C)c12

logP: 2.92
Compound: Cc1cc2occ(C)c2c2oc(=O)ccc12

logP: 2.79
Compound: Cc1cc2c(ccc3c(C)cc(=O)oc32)o1

logP: 3.62
Compound: Cc1c(C)c2cc3c(C)coc3c(C)c2oc1=O

logP: 3.23
Compound: Cc1c(C)c2cc(C)c3occc3c2oc1=O

logP: 3.54
Compound: Cc1cc2c(ccc3c(C)c(C)c(=O)n(C)c32)o1

logP: 2.84
Compound: Cc1cc2c(C)c3ccc(=O)oc3cc2o1

logP: 3.27
Compound: Cc1cc2c(ccc3c(C)c(C)c(=O)oc32)o1

logP: 2.97
Compound: Cc1cc2c(ccc3cc(C)c(=O)oc32)o1
